# Patent US10787425B2, “Thiazolidinedione derivative and use thereof” (INDUSTRY-ACADEMIC COOPERATION FOUNDATION CHOSUN UNIVERSITY, priority 2016, dated 2020)
# How the values were obtained:
# 15-PGDH = 15-PGDH (Homo sapiens (Human), UniProt P15428); assay: 15-PGDH inhibitory activity (NADH at 340 nm); format: biochemical; details: concentration inhibiting 50% of 15-PGDH activity; purified 15-PGDH, 21 μM PGE2, 0.25 mM NAD+
# Protocol: The 15-PGDH cDNA plasmid containing the BamHI of the pGEX-2T expression vector and EcoRI restriction enzyme sites was transfected into E. coli BL-21 LysS by using conventional methods used in the art. Then, the transfected cells were cultured in an LB medium (500 ml) containing 50 μg/ml of ampicillin at a temperature of 37° C. and at a rate of 220 rpm until the OD600 reached 0.6. Then, isopropyl beta-D-thiogalactoxide (1 mM) was added and the cells were further cultured at the temperature of 25° C. for 12 hours. The cells were then centrifuged at the gravity of 4,000 g for 30 minutes at a temperature of 4° C. to collect a cell pellet. The cell pellet was dissolved in 20 ml of cell lysis buffer (containing 1×PBS buffer (pH 7.4): 1 mM EDTA and 0.1 mM DTT) and sonicated at a temperature of 4° C. for 14×10 s. The digested cells were centrifuged at the gravity of 4,000 g for 20 minutes at a temperature of 4° C. The supernatant was then slowly loaded onto a glutathione-sepharose 4B column equilibrated at a temperature of 4° C. with cell lysis buffer [containing 1×PBS buffer (pH 7.4), 1 mM EDTA, and 0.1 mM DTT]. Washing was performed thereon by using a dissolution buffer until the OD280 reached 0.005 or less. Then, 15-PGDH was eluted from the glutathione-sepharose 4B column at room temperature for 5 minutes by using an elution buffer [containing 50 mM Tris-HCl (pH 8.0), 10 mM reduced glutathione, 1 mM EDTA, and 0.1 mM DTT). The concentration of the purified enzyme was measured, and the purification level thereof was confirmed by SDS-PAGE.
# That is, the cells were treated with a solution including 50 mM Tris-HCl (pH 7.5), 0.1 mM DTT, 0.25 mM (NAD+), 10 μg of purified 15-PGDH enzyme, 21 μM PGE2. and various concentrations (0.0001 μM to 64 μM) of the derivative compound according to the present disclosure. In this case, the total volume of the solution was 2 ml. Then, the absorbance of the reaction mixture was recorded at the wavelength of 340 nm. To measure the activity of the derivative compounds according to the present disclosure, which is an inhibitor of 15-PGDH, the average value of NADH absorbance at 340 nm at various concentrations was obtained from a standard curve.
# A549 cells = assay: Measurement of PGE2 concentration in A549 cell medium (ELISA); format: cell-based, human; details: for Increment %: PGE2 concentration versus PBS control, 5 μM, 12 hours; for PGE2 concentration: inhibitor 5 μM, medium collected after 12 hours, ELISA
# Protocol: A549 cells were subcultured in RPMI 1640 medium (containing+8% fetal bovine serum (FBS) and antibiotic-antimycotic (AA)) for one week, and then, inoculated in a 6-well plate at 2.5×10^5 cells/mL (5×10^5 cells/well) and cultured for 24 hours in a 5% CO2 incubator at a temperature of 37° C. A549 cells are adenocarcinomic human alveolar basal epithelial cells which are derived from lung tissues. When cells were grown to about 80% confluence, a 15-PGDH inhibitor in 1×PBS buffer was injected at a concentration of 5 μM. To compare the results, the same amount of 1×PBS buffer was injected into a negative control, and, the treated cells were cultured in 5% CO2 incubator. After 12 hours, the medium was collected and the collected medium was assayed to measure PGE2 concentration by using an ELISA Kit (Abcam) according to the manufacturer's instructions. The concentration may be expressed as an exact value by plotting the calibration curve by using the absorbance value after diluting the standard in the medium by concentration.
# Chain of 15-PGDH (P15428 whole entry): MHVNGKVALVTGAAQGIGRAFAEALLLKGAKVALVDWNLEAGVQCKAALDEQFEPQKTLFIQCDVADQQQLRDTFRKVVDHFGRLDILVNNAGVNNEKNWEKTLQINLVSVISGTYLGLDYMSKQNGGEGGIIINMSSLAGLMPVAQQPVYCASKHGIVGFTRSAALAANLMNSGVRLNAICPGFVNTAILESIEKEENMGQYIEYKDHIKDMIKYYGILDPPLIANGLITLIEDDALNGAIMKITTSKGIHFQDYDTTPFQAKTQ
SMILES,IC50 (15-PGDH) [nM],Increment % (A549 cells) [%],PGE2 concentration (A549 cells) [pg/mL]
"O=C(CCCCC1CCCCC1)Oc1ccc(/C=C2\SC(=O)NC2=O)cc1Br [Compound 25, (Z)-2-bromo-4-((2,4-dioxothiazolidin-5-ylidene)methyl)phenyl 5-cyclohexylpentanoate]",26.3,5.34,266.5484
"COc1cc(/C=C2\SC(=O)NC2=O)ccc1OC(=O)C1CC1 [Compound 31, (Z)-4-((2,4-dioxothiazolidin-5-ylidene)methyl)-2-methoxyphenyl cyclopropanecarboxylate]",1100,1.13,199.4327
"CCOc1cc(/C=C2\SC(=O)NC2=O)ccc1OC(=O)CCC1CCCCC1 [Compound 53, (Z)-4-((2,4-dioxothiazolidin-5-ylidene)methyl)-2-ethoxyphenyl 3-cyclohexylpropanoate]",–,189.34,792.73
"O=C(O)c1ccccc1.O=C1NC(=O)/C(=C/c2ccc(OC(=O)c3ccccc3)c(Br)c2)S1 [Compound 26, (Z)-2-bromo-4-((2,4-dioxothiazolidin-5-ylidene)methyl)phenylbenzoate]",25.4,−11.12,175.2752
"O=C(CCCC1CCCCC1)Oc1cccc(/C=C2\SC(=O)NC2=O)c1Cl [Compound 84, (Z)-2-chloro-3-((2,4-dioxothiazolidin-5-ylidene)methyl)phenyl 4-cyclohexylbutanoate]",22.5,16.67,245.488
"CCOc1cc(/C=C2\SC(=O)NC2=O)ccc1OC(=O)C1CCCC1 [Compound 48, (Z)-4-((2,4-dioxothiazolidin-5-ylidene)methyl)-2-ethoxyphenyl cyclopentanecarboxylate]",1400,−22.79,211.539
"COc1cc(/C=C2\SC(=O)NC2=O)ccc1OC(=O)CCCCc1ccccc1 [Compound 45, (Z)-4-((2,4-dioxothiazolidin-5-ylidene)methyl)-2-methoxyphenyl 5-phenylpentanoate]",38.9,78.78,362.494
"CCOc1cc(/C=C2\SC(=O)NC2=O)ccc1OC(=O)CCCC1CCCCC1 [Compound 54, (Z)-4-((2,4-dioxothiazolidin-5-ylidene)methyl)-2-ethoxyphenyl 4-cyclohexylbutanoate]",23.8,202.57,828.9774
"CCOc1cc(/C=C2\SC(=O)NC2=O)ccc1OC(=O)CCCCc1ccccc1 [Compound 60, (Z)-4-((2,4-dioxothiazolidin-5-ylidene)methyl)-2-ethoxyphenyl 5-phenylpentanoate]",58.4,88.87,300.5549
"O=C1NC(=O)/C(=C/c2ccc(OC(=O)C3CCCC3)c(Br)c2)S1 [Compound 18, (Z)-2-bromo-4-((2,4-dioxothiazolidin-5-ylidene)methyl)phenyl cyclopentanecarboxylate]",50,−21.7,198.1274
"CCOc1cc(/C=C2\SC(=O)NC2=O)ccc1OC(=O)C1CC1 [Compound 46, (Z)-4-((2,4-dioxothiazolidin-5-ylidene)methyl)-2-ethoxyphenyl cyclopropanecarboxylate]",2170,1.78,278.8555
"CCOc1cc(/C=C2\SC(=O)NC2=O)ccc1OC(=O)CC1CCCC1 [Compound 49, (Z)-4-((2,4-dioxothiazolidin-5-ylidene)methyl)-2-ethoxyphenyl 2-cyclopentylacetate]",128,9.34,299.5683
"O=C(CC1CCCC1)Oc1ccc(/C=C2\SC(=O)NC2=O)c(Cl)c1 [Compound 94, (Z)-3-chloro-4-((2,4-dioxothiazolidin-5-ylidene)methyl)phenyl 2-cyclopentylacetate]",32.7,97.1474,220.1299
"O=C1NC(=O)/C(=C/c2ccc(OC(=O)C3CC3)c(Br)c2)S1 [Compound 16, (Z)-2-bromo-4-((2,4-dioxothiazolidin-5-ylidene)methyl)phenyl cyclopropanecarboxylate]",220,12.12,283.7043
"O=C(CCC1CCCCC1)Oc1cccc(/C=C2\SC(=O)NC2=O)c1Cl [Compound 83, (Z)-2-chloro-3-((2,4-dioxothiazolidin-5-ylidene)methyl)phenyl 3-cyclohexylpropanoate]",–,201.32,634.0143
"COc1cc(/C=C2\SC(=O)NC2=O)ccc1OC(=O)CCC1CCCCC1 [Compound 38, (Z)-4-((2,4-dioxothiazolidin-5-ylidene)methyl)-2-methoxyphenyl 3-cyclohexylpropanoate]",–,323.99,859.6813
"O=C(CCC1CCCCC1)Oc1ccc(/C=C2\SC(=O)NC2=O)cc1Br [Compound 23, (Z)-2-bromo-4-((2,4-dioxothiazolidin-5-ylidene)methyl)phenyl 3-cyclohexylpropanoate]",–,311.02,1040.03
"O=C1NC(=O)/C(=C/c2cccc(OC(=O)C3CCCCC3)c2Cl)S1 [Compound 81, (Z)-2-chloro-3-((2,4-dioxothiazolidin-5-ylidene)methyl)phenyl cyclohexanecarboxylate]",–,10.32,232.1268
"O=C1NC(=O)/C(=C/c2ccc(OC(=O)c3ccccc3)cc2)S1 [Compound 71, (Z)-4-((2,4-dioxothiazolidin-5-ylidene)methyl)phenyl benzoate]",–,−58.38,53.76
"O=C(CCC1CCCCC1)Oc1ccc(/C=C2\SC(=O)NC2=O)cc1 [Compound 68, (Z)-4-((2,4-dioxothiazolidin-5-ylidene)methyl)phenyl 3-cyclohexylpropanoate]",–,97.45,255.0535
"O=C(CCC1CCCCC1)Oc1ccc(/C=C2\SC(=O)NC2=O)c(Cl)c1 [Compound 98, (Z)-3-chloro-4-((2,4-dioxothiazolidin-5-ylidene)methyl)phenyl 3-cyclohexylpropanoate]",–,138.7487,266.5808
"O=C(CCCC1CCCCC1)Oc1ccc(/C=C2\SC(=O)NC2=O)c(Cl)c1 [Compound 99, (Z)-3-chloro-4-((2,4-dioxothiazolidin-5-ylidene)methyl)phenyl 4-cyclohexylbutanoate]",–,66.7717,186.2131
"O=C(CCC1CCCC1)Oc1ccc(/C=C2\SC(=O)NC2=O)c(Cl)c1 [Compound 95, (Z)-3-chloro-4-((2,4-dioxothiazolidin-5-ylidene)methyl)phenyl 3-cyclopentylpropanoate]",–,113.4574,238.3412
"O=C(CCC1CCCCC1)Oc1ccc(/C=C2\SC(=O)NC2=O)cc1Cl [Compound 8, (Z)-2-chloro-4-((2,4-dioxothiazolidin-5-ylidene)methyl)phenyl 3-cyclohexylpropanoate]",–,221.32,879.6746
"O=C1NC(=O)/C(=C/c2ccc(OC(=O)C3CCC3)cc2)S1 [Compound 62, (Z)-4-((2,4-dioxothiazolidin-5-ylidene)methyl)phenyl cyclobutanecartboxylate]",–,12.13,178.4361
